In the NIST ThermoML archive (doi:10.1016/j.fluid.2017.12.010):
Numbers after ± are expanded uncertainties.

Assay: xn = mol fraction of the nth substance listed
Settings: Liquid, Vibrating tube method

CCCCCCCCCCCC [dodecane] + CCCCCCCCCC
Settings	mass density [kg/m3]
323.11 K, 10000 kPa, x2 = 0.4436	728 ± 3
323.11 K, 20000 kPa, x2 = 0.4436	735 ± 3
323.11 K, 30000 kPa, x2 = 0.4436	742 ± 3
323.12 K, 40000 kPa, x2 = 0.4436	749 ± 3
323.12 K, 60000 kPa, x2 = 0.4436	761 ± 3
323.12 K, 80000 kPa, x2 = 0.4436	771 ± 3
323.13 K, 100000 kPa, x2 = 0.4436	781 ± 3
323.21 K, 100 kPa, x2 = 0.6433	715 ± 3
323.21 K, 1000 kPa, x2 = 0.6433	716 ± 3
323.21 K, 5000 kPa, x2 = 0.6433	720 ± 3
323.21 K, 10000 kPa, x2 = 0.6433	724 ± 3
323.21 K, 20000 kPa, x2 = 0.6433	732 ± 3
323.22 K, 30000 kPa, x2 = 0.6433	739 ± 3
323.22 K, 40000 kPa, x2 = 0.6433	746 ± 3
323.22 K, 60000 kPa, x2 = 0.6433	757 ± 3
323.22 K, 80000 kPa, x2 = 0.6433	768 ± 3
323.22 K, 100000 kPa, x2 = 0.6433	777 ± 3
323.23 K, 5000 kPa, x2 = 0.7841	717 ± 3
323.24 K, 100 kPa, x2 = 0.7841	712 ± 3
323.24 K, 1000 kPa, x2 = 0.7841	713 ± 3
323.24 K, 10000 kPa, x2 = 0.7841	721 ± 3
323.24 K, 20000 kPa, x2 = 0.7841	729 ± 3
323.24 K, 30000 kPa, x2 = 0.7841	736 ± 3
323.24 K, 40000 kPa, x2 = 0.7841	743 ± 3
323.24 K, 60000 kPa, x2 = 0.7841	755 ± 3
323.24 K, 80000 kPa, x2 = 0.7841	765 ± 3
323.24 K, 99990 kPa, x2 = 0.7841	775 ± 3
332.74 K, 100 kPa, x2 = 0	720 ± 3
332.74 K, 1000 kPa, x2 = 0	721 ± 3
332.74 K, 5000 kPa, x2 = 0	725 ± 3
332.74 K, 10000 kPa, x2 = 0	729 ± 3
332.74 K, 20000 kPa, x2 = 0	737 ± 3
332.74 K, 30000 kPa, x2 = 0	744 ± 3
332.74 K, 40000 kPa, x2 = 0	750 ± 3
332.74 K, 50000 kPa, x2 = 0	757 ± 3
332.74 K, 60000 kPa, x2 = 0	762 ± 3
332.74 K, 70000 kPa, x2 = 0	768 ± 3
332.74 K, 80000 kPa, x2 = 0	773 ± 3
332.74 K, 90000 kPa, x2 = 0	778 ± 3
332.75 K, 100000 kPa, x2 = 0	782 ± 3
332.97 K, 100 kPa, x2 = 0.4436	712 ± 3
332.98 K, 1000 kPa, x2 = 0.4436	713 ± 3
332.99 K, 5000 kPa, x2 = 0.4436	717 ± 3
332.99 K, 10000 kPa, x2 = 0.4436	721 ± 3
332.99 K, 20000 kPa, x2 = 0.4436	729 ± 3
333 K, 100 kPa, x2 = 0.2297	716 ± 3
333 K, 1000 kPa, x2 = 0.2297	717 ± 3
333 K, 5000 kPa, x2 = 0.2297	720 ± 3
333 K, 30000 kPa, x2 = 0.4436	736 ± 3
333 K, 40000 kPa, x2 = 0.4436	743 ± 3
333.01 K, 10000 kPa, x2 = 0.2297	725 ± 3
333.01 K, 20000 kPa, x2 = 0.2297	733 ± 3
333.01 K, 60000 kPa, x2 = 0.4436	755 ± 3
333.01 K, 80000 kPa, x2 = 0.4436	766 ± 3
333.01 K, 100000 kPa, x2 = 0.4436	776 ± 3
333.02 K, 30000 kPa, x2 = 0.2297	740 ± 3
333.02 K, 40000 kPa, x2 = 0.2297	747 ± 3
333.02 K, 60000 kPa, x2 = 0.2297	758 ± 3
333.03 K, 80000 kPa, x2 = 0.2297	769 ± 3
333.03 K, 100000 kPa, x2 = 0.2297	779 ± 3
333.06 K, 100 kPa, x2 = 0.7841	705 ± 3
333.07 K, 1000 kPa, x2 = 0.7841	706 ± 3
333.07 K, 40000 kPa, x2 = 0.7841	737 ± 3
333.08 K, 5000 kPa, x2 = 0.7841	710 ± 3
333.08 K, 10000 kPa, x2 = 0.7841	714 ± 3
333.08 K, 20000 kPa, x2 = 0.7841	723 ± 3
333.08 K, 30000 kPa, x2 = 0.7841	730 ± 3
333.08 K, 60000 kPa, x2 = 0.7841	749 ± 3
333.08 K, 80000 kPa, x2 = 0.7841	760 ± 3
333.08 K, 100000 kPa, x2 = 0.7841	770 ± 3
333.09 K, 100 kPa, x2 = 0.6433	708 ± 3
333.09 K, 1000 kPa, x2 = 0.6433	709 ± 3
333.09 K, 5000 kPa, x2 = 0.6433	713 ± 3
333.09 K, 10000 kPa, x2 = 0.6433	717 ± 3
333.09 K, 30000 kPa, x2 = 0.6433	733 ± 3
333.1 K, 20000 kPa, x2 = 0.6433	725 ± 3
333.1 K, 40000 kPa, x2 = 0.6433	740 ± 3
333.1 K, 60000 kPa, x2 = 0.6433	752 ± 3
333.1 K, 80000 kPa, x2 = 0.6433	763 ± 3
333.1 K, 100000 kPa, x2 = 0.6433	772 ± 3
342.67 K, 100 kPa, x2 = 0	713 ± 3
342.67 K, 1000 kPa, x2 = 0	714 ± 3
342.67 K, 5000 kPa, x2 = 0	718 ± 3
342.67 K, 10000 kPa, x2 = 0	722 ± 3
342.67 K, 20000 kPa, x2 = 0	731 ± 3
342.67 K, 30000 kPa, x2 = 0	738 ± 3
342.67 K, 40000 kPa, x2 = 0	745 ± 3
342.67 K, 50000 kPa, x2 = 0	751 ± 3
342.67 K, 60000 kPa, x2 = 0	757 ± 3
342.67 K, 69990 kPa, x2 = 0	763 ± 3
342.67 K, 80000 kPa, x2 = 0	768 ± 3
342.67 K, 90000 kPa, x2 = 0	773 ± 3
342.67 K, 100000 kPa, x2 = 0	778 ± 3
342.92 K, 100 kPa, x2 = 0.2297	709 ± 3
342.92 K, 100 kPa, x2 = 0.4436	705 ± 3
342.92 K, 1000 kPa, x2 = 0.2297	710 ± 3
342.92 K, 1000 kPa, x2 = 0.4436	706 ± 3
342.92 K, 5000 kPa, x2 = 0.2297	714 ± 3
342.92 K, 5000 kPa, x2 = 0.4436	710 ± 3
342.92 K, 10000 kPa, x2 = 0.2297	718 ± 3
342.92 K, 10000 kPa, x2 = 0.4436	714 ± 3
342.92 K, 20000 kPa, x2 = 0.2297	727 ± 3
342.93 K, 100 kPa, x2 = 0.6433	701 ± 3
342.93 K, 1000 kPa, x2 = 0.6433	702 ± 3
342.93 K, 20000 kPa, x2 = 0.4436	723 ± 3
342.93 K, 30000 kPa, x2 = 0.2297	734 ± 3
342.93 K, 30000 kPa, x2 = 0.4436	731 ± 3
342.93 K, 40000 kPa, x2 = 0.2297	741 ± 3
342.93 K, 40000 kPa, x2 = 0.4436	738 ± 3
342.93 K, 60000 kPa, x2 = 0.2297	753 ± 3
342.93 K, 60000 kPa, x2 = 0.4436	750 ± 3
342.93 K, 80000 kPa, x2 = 0.4436	761 ± 3
342.93 K, 100000 kPa, x2 = 0.4436	771 ± 3
342.94 K, 5000 kPa, x2 = 0.6433	706 ± 3
342.94 K, 10000 kPa, x2 = 0.6433	710 ± 3
342.94 K, 20000 kPa, x2 = 0.6433	719 ± 3
342.94 K, 30000 kPa, x2 = 0.6433	727 ± 3
342.94 K, 40000 kPa, x2 = 0.6433	734 ± 3
342.94 K, 60000 kPa, x2 = 0.6433	747 ± 3
